Data set [1] deals with Plasmodium falciparum. As to the kind of experiment: Hit confirmation in dose-response curve in Dd2 pLDH assay, at 72h. Details: timepoint 72 hour. Conditions: Dd2, Erythrocyte. It is filed as functional, organism-based.
Data set [2] relates to Plasmodium falciparum. In words: Hit confirmation in dose-response curve in NF54 nanoGlo assay, at 12h. Format: functional, organism-based, Erythrocyte. Also on record: timepoint 12 hour. Conditions: Plasmodium falciparum, NF54, Erythrocyte, 12 h.
Data set [3] deals with Plasmodium falciparum. As to the kind of experiment: Hit confirmation in dose-response curve in NF54 nanoGlo assay, at 72h. Format: functional, organism-based, Erythrocyte. Also on record: timepoint 72 hour. Conditions: Plasmodium falciparum, NF54, Erythrocyte, 72 h.
For data set [4], the system named is Plasmodium falciparum. In words: Hit confirmation in dose-response curve in NF54 pLDH assay, at 72h. Conditions: NF54, Erythrocyte. Format: functional, organism-based. Details: timepoint 72 hour.
Data set [5] can be described thus: Hit confirmation in dose-response curve in HepG2 cytotoxicity assay, at 72h. It is filed as toxicity, cell-based. Also on record: timepoint 72 hour. The following applies: human, HepG2 cells.

Broadly, the IC50 is the concentration that gives 50% inhibition. A higher IC50 goes with a need for much substance. In the case of `COc1cccc(S(=O)(=O)N2CCCN(Cc3ccncc3)[C@H](c3ccccc3)CC(=O)NCC2)c1`, the concentration for half-maximal inhibition (IC50) in data set [1] turned out to be 2.19 µM; in data set [2], 2.82 µM; in data set [3], 0.933 µM; in data set [4] it was 3.24 µM. The same compound displayed an IC50 at 72 h in data set [5] of over 10 µM.

Take `CC(C)c1ccc(Oc2cnn(-c3cccc(Cl)c3)c(=O)c2Nc2cccc(C(=O)NC3CC3)c2)cc1`: the IC50 in data set [1] was 6.61 µM; in data set [2], over 10 µM; in data set [3], 3.02 µM; in data set [4] it was 10 µM. Moreover, the IC50 at 72 h in data set [5] was over 10 µM.

As for `CCc1cccc(NC(=O)N2CCC3(CC2)C(=O)N(CC(=O)Nc2ccc(F)cc2)CN3c2ccccc2)c1`, the 50% inhibitory concentration (IC50) in data set [1] amounted to 6.76 µM; in data set [2] it was 2.95 µM; in data set [3] it was 3.02 µM; in data set [4], 10.7 µM. The compound further came in with an IC50 at 72 h in data set [5] of over 10 µM.

For `COc1ccc2[nH]c3c(c2c1)CCN(C(=O)c1ccc(C)c(C)c1)[C@@H]3c1ccccc1OC`, the IC50 in data set [1] is 2.57 µM; in data set [2], 8.71 µM; in data set [3] it was 1.74 µM; in data set [4] it was 3.55 µM. For the same compound, in data set [5], the half-maximal inhibitory concentration (IC50) at 72 h was over 10 µM.

Consider `COc1ccc(CN2CC[C@@H]3C(=O)NCCCCCCN(Cc4ccncc4)[C@@H]3C2)cc1Cn1ccnc1`, for which the IC50 in data set [1] came to 1.17 µM; in data set [2], 7.08 µM; in data set [3], 1.1 µM; in data set [4], 1.15 µM. In data set [5], this compound yielded an IC50 at 72 h of over 10 µM.

`CCC(C(=O)Nc1ccc2c(c1)CN(CCc1ccc(OC)c(OC)c1)C(=O)C(C)O2)c1ccccc1` (stereo not given): the IC50 in data set [1] was 1.82 µM; in data set [2] it was 0.912 µM; in data set [3], 0.288 µM; in data set [4] it was 2.88 µM. The IC50 at 72 h in data set [5] is over 10 µM.

For `CC(C)(C)n1nc2nc(NCCN3CCCCC3)nc(-c3ccc(F)c(Cl)c3)c2c1N`, the IC50 was found to be 2.82 µM in data set [1], 6.03 µM in data set [2], 1.62 µM in data set [3] and 2.88 µM in data set [4]. In data set [5], this compound had a 50% inhibitory concentration (IC50) at 72 h of over 10 µM.

In the case of `CC(C)CCn1nnnc1[C@]1(N(C)C)CCCN(C(=O)c2cccn2C)C1`, the IC50 in data set [1] was over 10 µM; in data set [2], 0.275 µM; in data set [3] it was 0.309 µM; in data set [4] it was over 10 µM. Besides, the half-inhibitory concentration (IC50) at 72 h in data set [5] was over 10 µM.

As for `COCCNC(=O)c1ccc(-n2nc(-c3nnc(C)o3)c(C)c2-c2ccc(OC)cc2)cc1`, the 50% inhibitory concentration (IC50) was over 10 µM in data set [1], 3.63 µM in data set [2], 3.24 µM in data set [3] and over 10 µM in data set [4]. The compound further came in with an IC50 at 72 h in data set [5] of over 10 µM.

Take `CC(C)c1cccc(Nc2nc3ccncc3n(C(C)C)c2=O)c1`: the IC50 was found to be 2.09 µM in data set [1], 3.31 µM in data set [2], 1.66 µM in data set [3] and 2.82 µM in data set [4]. Also, the IC50 at 72 h in data set [5] is over 10 µM.

For the compound `O=C(Cc1ccc(N(Cc2cccc(F)c2)C(=O)C2CCCC2)cc1)NCCN1CCCCC1`, the 50% inhibitory concentration (IC50) in data set [1] was 0.724 µM; in data set [2], over 10 µM; in data set [3] it was 0.501 µM; in data set [4], 0.617 µM. In addition, in data set [5], the IC50 at 72 h was over 10 µM.

As for `CCn1ncc(CN2CC[C@@H]3C(=O)NCCCCCCN(Cc4ccncc4)[C@@H]3C2)c1C`, the IC50 in data set [1] was 3.63 µM; in data set [2], over 10 µM; in data set [3], 3.72 µM; in data set [4] it was 1.26 µM. Moreover, in data set [5], the IC50 at 72 h is over 10 µM.

On to `COc1ccc(CCNc2nc(-c3ccc(OC)cc3F)c3c(N)n(-c4ccc(Cl)cc4)nc3n2)cc1`, for which the IC50 in data set [1] was 6.61 µM; in data set [2], 4.9 µM; in data set [3], 3.55 µM; in data set [4] it was over 10 µM. In data set [5], this compound returned an IC50 at 72 h of over 10 µM.

Take `CCN1CCN(C(=O)c2ccccc2N2CCC(NC(=O)c3cccc(Br)c3)CC2)CC1`: the IC50 in data set [1] was 5.37 µM; in data set [2] it was over 10 µM; in data set [3], 2.51 µM; in data set [4], 1.66 µM. Moreover, the half-maximal inhibitory concentration (IC50) at 72 h in data set [5] is over 10 µM.
